Assay results published in paper PMC11315935, “Multi-layered heterochromatin interaction as a switch for DIM2-mediated DNA methylation” (Nature Communications, 2024).

Experiments:
DIM2 [1] = assay: In vitro DNA methylation kinetics, substrate specificity of DIM2; assay type: biochemical, Neurospora Crassa; design: unit not given here; conditions: Sup Fig. 1f, 0.25 µM DIM2, 1.0 µM DNA, 1.0 µM H3K9me3 peptide, 0.5 µM HP1, pH 8.0, 30 °C
Description: (§1) In vitro DNA methylation assay was performed in a 20-µL reaction mixture. For the substrate specificity assay, the following DNA duplexes were used as substrates: CG DNA (Upper strand: 5’-[…]-3’), hemimethylated CG DNA (Upper strand: 5’-TAAATTTXGATTAATAAT-3’, X = 5-methylcytosine; Lower strand: 5’-[…] -3’), CHG DNA (Upper strand: 5’-[…]-3’), and CHH DNA (Upper strand: 5’-[…]-3’). The reaction mixture contains 0.25 µM DIM2, 1.0 µM DNA duplex, 1.0 µM synthesized H3K9me3 peptide (residues 1-24 of H3 plus a C-terminal tryptophan), 0.5 µM HP1, and 0.56 µM S-adenosyl-L-[methyl-^3H] methionine with a specific activity of 18 Ci/mmol (PerkinElmer) in buffer containing 50 mM Tris-HCl (pH 8.0), 100 mM NaCl, 0.05% β-mercaptoethanol, 5% glycerol, and 200 µg/mL BSA. For the rest of the DNA methylation assay, each reaction mixture contains 1.0 µM DIM2, 1.0 µM (CAT)12/(ATG)12 DNA duplex and 0.56 µM S-adenosyl-L-[methyl-^3H] methionine with a specific activity of 18 Ci/mmol (PerkinElmer) in buffer containing 50 mM Tris-HCl (pH 8.0), 100 mM NaCl, 0.05% β-mercaptoethanol, 5% glycerol, and 200 µg/mL BSA. In addition, 1.0 µM synthesized H3K9me3 or H3K9me0 peptide (residues 1-24 of H3 plus a C-terminal tryptophan) and/or 2 µM HP1 protein was included to evaluate the effect of H3 and HP1 regulation. The reaction mixture was incubated at 30 °C for 30 min, unless indicated otherwise, before being quenched by the addition of 5 µL of 10 mM cold SAM. After the reaction, 8 μL of the mixtures was loaded onto Hybond N nylon membrane (GE Healthcare), which was left to dry out at room temperature. The membrane was subsequently washed with 0.2 M ammonium bicarbonate (pH 8.2) two times (20 min per time), deionized water (20 min) once, and 95% ethanol (5 min) once. After air dried, the membrane carrying each sample was transferred into a vial containing 3 mL scintillation buffer (Fisher). The tritium scintillation was measured and recorded by a Beckman LS6500 counter. Each the reaction was repeated three times.

DIM2 [2] = assay: In vitro DNA methylation assay: effect of HP1 and H3 peptides on DIM2 activity; assay type: biochemical, Neurospora Crassa; design: DNA methylation activity of DIM2 in presence of HP1, WT or W98A: unit not given beside the values; conditions: for effect on DNA methylation activity of DIM2 (in words): 36-mer DNA duplex, 1.0 µM peptide and/or 2 µM HP1; for DNA methylation activity of DIM2 in presence of HP1, WT or W98A: Sup Fig. 1e, (CTA)12/(TAG)12 DNA duplex, 1.0 µM DIM2, 2 µM HP1, 30 °C, 30 min, pH 8.0
Description: as §1, with “1.0 µM (CAT)12/(ATG)12 DNA duplex and 0.56 µM S-adenosyl-L-[methyl-^3H]” left out

[3] = reaction time 0 min, replicate 1
[4] = reaction time 0 min, replicate 2
[5] = reaction time 0 min, replicate 3
[6] = reaction time 15 min, replicate 1
[7] = reaction time 15 min, replicate 2
[8] = reaction time 15 min, replicate 3
[9] = reaction time 30 min, replicate 1
[10] = reaction time 30 min, replicate 2
[11] = reaction time 30 min, replicate 3

Substance	DNA methylation kinetics (DIM2 [1]; [3])	DNA methylation kinetics (DIM2 [1]; [4])	DNA methylation kinetics (DIM2 [1]; [5])	DNA methylation kinetics (DIM2 [1]; [6])	DNA methylation kinetics (DIM2 [1]; [7])	DNA methylation kinetics (DIM2 [1]; [8])	DNA methylation kinetics (DIM2 [1]; [9])	DNA methylation kinetics (DIM2 [1]; [10])	DNA methylation kinetics (DIM2 [1]; [11])	effect on DNA methylation activity of DIM2 (in words) (DIM2 [2])	DNA methylation activity of DIM2 in presence of HP1, WT or W98A (DIM2 [2]; replicate 1)	DNA methylation activity of DIM2 in presence of HP1, WT or W98A (DIM2 [2]; replicate 2)	DNA methylation activity of DIM2 in presence of HP1, WT or W98A (DIM2 [2]; replicate 3)
CG: CG DNA (Upper strand: 5’-ATTATTAATCGAAATTTA-3’) (DNA, backbone not given here; DNA duplex substrate for methylation assay)	0.019	0.03	0.038	0.476	0.828	0.621	1.426	1.174	1.115	–	–	–	–
HP1WT: Neurospora Crassa HP1 (residues 1-266; Q1K612)	–	–	–	–	–	–	–	–	–	slight but notable activity of DIM2	22.922	23.125	22.99
CHG: CHG DNA (Upper strand: 5’-ATTATTAATCTGAATTTA-3’) (DNA, backbone not given here; DNA duplex substrate for methylation assay)	0.037	0.044	0.013	1.24	1.116	1.338	1.866	1.872	1.906	–	–	–	–
CHH: CHH DNA (Upper strand: 5’-ATTATTAATCTAAATTTA-3’) (DNA, backbone not given here; DNA duplex substrate for methylation assay)	0.004	0.003	0.026	0.184	0.154	0.169	0.346	0.291	0.235	–	–	–	–
H3_1-24K9me0: H3K9me0 peptide (residues 1-24 of H3 plus a C-terminal tryptophan), unmethylated H3 K9	–	–	–	–	–	–	–	–	–	failed to synergize with HP1 to boost the DNA methylation activity of DIM2	–	–	–
